These results are taken from patent US8168668B2, “Compounds” (AstraZeneca AB, priority 2005, dated 2012).

The subject of experiment [1] is carrageenan-induced heat hyperalgesia. In words: Carrageenan model, heat plantar test (paw withdrawal latency). The format is in vivo. As to conditions: rat, orally administered.
Experiment [2] has as its system FCA-induced heat hyperalgesia. In words: Freund's Complete Adjuvant (FCA) model, heat plantar test (paw withdrawal latency). The format is in vivo. Conditions: rat, orally administered.

In the case of `C[C@H](NC(=O)Cn1cnc2ccc(F)c(F)c21)c1ccc(C(C)(C)C)cc1` [Example 52, N-[(1S)-1-(4-tert-butylphenyl)ethyl]-2-(6,7-difluoro-1H-benzimidazol-1-yl)acetamide], the EC50 in experiment [1] (po, tested at Tmax) turned out to be 500 nM; in experiment [2] (po, tested at Tmax), 1600 nM. In addition, the ED50 in experiment [1] (po, tested at Tmax) turned out to be 37.4 µmol/kg; in experiment [2] (po, tested at Tmax), 120 µmol/kg. The “Extrapolated Emax” value in experiment [1] (non-linear regression) and in experiment [2] (non-linear regression) was above 100% in each case. Moreover, the results for the Emax observed in experiment [1] (reversal of heat hyperalgesia) and in experiment [2] (reversal of heat hyperalgesia) were 74% and 78%, respectively. Moreover, the 80% effect concentration (EC80) came to 1400 nM in experiment [1] (tested at Tmax) and 4600 nM in experiment [2] (tested at Tmax).
